Measurements: US8664210B2, “Aminooxime derivatives of 2- and/or 4-substituted androstanes and androstenes as medicaments for cardiovascular disorders” (priority 2007, dated 2014)
Counter-ions that a name gives are not always drawn. Like-named read-outs stand apart in the source and are kept apart here.

Legend:
Na+,K+-ATPase = Na+,K+-ATPase (Canis lupus familiaris, UniProt P50997); conditions: relative to compound 22b; cited from earlier work
[1] = target: Dog Kidney Na+, K+-ATPase (Canis lupus familiaris, UniProt P50997); assay: Dog kidney Na+,K+-ATPase inhibition (hydrolysis of 32P-ATP); type: biochemical
anesthetized guinea-pig = assay: inotropic effect and lethal dose in anesthetized guinea-pig (infusion over 90 minutes); type: in vivo; conditions: for Lethal dose/ED80: calculated in the died animals
Protocol: The inotropic activity is shown as maximum increase in contractile force (Emax measured as +dP/dTmax), dose inducing maximum positive inotropic effect (EDmax), inotropic potency (ED80, dose increasing +dP/dTmax by 80%); the toxicity as the ratio between lethal dose and inotropic potency (calculated in the died animals). All animals, previously anesthetized, were administered the drug through infusion over a 90 minute period.

[2] = anesthetized guinea-pig, infusion over 90 min
[3] = dog kidney enzyme, read-out: Na+, K+-ATPase Inhibition IC50

C[C@@H]1/C(=N/OCCN)CC[C@@]2(C)C1C(=O)C[C@@H]1[C@@H]2CC[C@]2(C)C(=O)CC[C@@H]12.Cl (stereo partly drawn) [Compd. 22d, (E)-3-(2-aminoethoxyimino)-4α-methylandrostan-6,17-dione hydrochloride]
times less active than des-methyl compound 22b (Na+,K+-ATPase): 30 | IC50 [1]: 6000 nM | Dead/treated (anesthetized guinea-pig; [2]): 0/3 | ED80 (inotropic potency, dose increasing +dP/dTmax by 80%) (anesthetized guinea-pig; [2]): 23.0 µmol/kg | EDmax (dose inducing maximum positive inotropic effect) (anesthetized guinea-pig; [2]): 149 µmol/kg | Emax % increase in +dP/dTmax (maximum increase in contractile force) (anesthetized guinea-pig; [2]): 190% | Maximum dose infused (anesthetized guinea-pig; [2]): 250.3 µmol/kg | Notes (toxic signs during infusion) (anesthetized guinea-pig; anesthetized guinea-pig, infusion over 90 min, hydrochloride): tremors and contractions appeared during the infusion

C[C@H]1O[C@@H](O[C@H]2[C@@H](O)C[C@H](O[C@H]3[C@@H](O)C[C@H](O[C@H]4CC[C@@]5(C)[C@H](CC[C@@H]6[C@@H]5C[C@@H](O)[C@]5(C)[C@@H](C7=CC(=O)OC7)CC[C@]65O)C4)O[C@@H]3C)O[C@@H]2C)C[C@H](O)[C@@H]1O [Digoxin, digoxin]
Dead/treated (anesthetized guinea-pig; [2]): 10/10 | ED80 (inotropic potency, dose increasing +dP/dTmax by 80%) (anesthetized guinea-pig; [2]): 0.29 µmol/kg | EDmax (dose inducing maximum positive inotropic effect) (anesthetized guinea-pig; [2]): 0.65 µmol/kg | Emax % increase in +dP/dTmax (maximum increase in contractile force) (anesthetized guinea-pig; [2]): 158% | Maximum dose infused (anesthetized guinea-pig; [2]): 1.16 µmol/kg | Lethal dose/ED80 (anesthetized guinea-pig): 4.0

CC1=C2CC[C@H]3[C@@H]4CC[C@H](O)[C@@]4(C)CC[C@@H]3[C@@]2(C)CC/C1=N\OCCN [I-aa, (E)-3-(2-Aminoethoxyimino)-4-methylandrost-4-en-17β-ol hydrochloride]
IC50 [1]: 4900 nM

CC1(C)/C(=N/OCCN)CC[C@@]2(C)C1CC[C@H]1[C@@H]3CC[C@H](O)[C@@]3(C)CC[C@@H]12 (stereo partly drawn) [I-ag, (E)-3-(2-Aminoethoxyimino)-4,4-dimethylandrostan-17β-ol fumarate]
IC50 [1]: 3900 nM

CC1(C)/C(=N/OCCCN)CC[C@@]2(C)C1CC[C@H]1[C@@H]3CC[C@H](O)[C@@]3(C)CC[C@@H]12 (stereo partly drawn) [I-ai, (E)-3-(3-Aminopropoxyimino)-4,4-dimethylandrostan-17β-ol fumarate]
IC50 [1]: 1900 nM

CNCCCON=C1CCC2(C)C3CCC4(C)C(O)CCC4C3CCC2C1(C)C (stereo not drawn) [I-aj, (E)-3-(3-N-Methylaminopropoxyimino)-4,4-dimethylandrostan-17β-ol fumarate]
IC50 [1]: 1400 nM

CC1(C)/C(=N/O[C@@H]2CCNC2)CC[C@@]2(C)C1CC[C@H]1[C@@H]3CC[C@H](O)[C@@]3(C)CC[C@@H]12 (stereo partly drawn) [I-ak, (E)-3-[3-(R)-Pyrrolidinyl]oxyimino-4,4-dimethylandrostan-17β-ol fumarate]
IC50 [1]: 2000 nM

CC1(C)/C(=N/O[C@H]2CCNC2)CC[C@@]2(C)C1CC[C@H]1[C@@H]3CC[C@H](O)[C@@]3(C)CC[C@@H]12 (stereo partly drawn) [I-al, (E)-3-[3-(S)-Pyrrolidinyl]oxyimino-4,4-dimethylandrostan-17β-ol fumarate]
IC50 [1]: 2600 nM

CC1(C)/C(=N/OCCN)CC[C@@]2(C)C1CC[C@@H]1[C@@H]2CC[C@]2(C)C(=O)CC[C@@H]12 (stereo partly shown) [I-am, (E)-3-(2-Aminoethoxyimino)-4,4-dimethylandrostan-17-one fumarate]
IC50 [1]: 1700 nM

CC1(C)/C(=N/OCCCN)CC[C@@]2(C)C1CC[C@@H]1[C@@H]2CC[C@]2(C)C(=O)CC[C@@H]12 (stereo partly shown) [I-an, (E)-3-(3-Aminopropoxyimino)-4,4-dimethylandrostan-17-one fumarate]
IC50 [1]: 1500 nM

CC1(C)/C(=N/O[C@@H]2CCNC2)CC[C@@]2(C)C1CC[C@@H]1[C@@H]2CC[C@]2(C)C(=O)CC[C@@H]12 (stereo partly drawn) [I-ao, (E)-3-[3-(R)-Pyrrolidinyl]oxyimino-4,4-dimethylandrostan-17-one fumarate]
IC50 [1]: 1300 nM

CC1(C)/C(=N/OCCN)CC[C@@]2(C)C1C(=O)C[C@@H]1[C@@H]2CC[C@]2(C)C(=O)CC[C@@H]12 (stereo partly shown) [I-at, (E)-3-(2-Aminoethoxyimino)-4,4-dimethylandrostan-6,17-dione fumarate]
IC50 [1]: 1700 nM

CC1(C)/C(=N/O[C@@H]2CCNC2)CC[C@]2(C)[C@H]3CC[C@]4(C)C(=O)CC[C@H]4[C@@H]3CC(=O)[C@@]12O [I-au, (E)-3-[3-(R)-Pyrrolidinyl]oxyimino-4,4-dimethyl-5α-hydroxyandrostan-6,17-dione fumarate]
IC50 [1]: 2200 nM

C[C@]12CC[C@H]3[C@@H](CC=C4C5(CC5)/C(=N/OCCN)CC[C@@]43C)[C@@H]1CC[C@@H]2O [I-bb, (E)-3-(2-Aminoethoxyimino)-4-(spirocyclopropane)-5-androsten-17β-ol fumarate]
IC50 [1, 3]: 1500 nM

C[C@]12CC[C@H]3[C@@H](CC=C4C5(CC5)/C(=N/O[C@@H]5CCNC5)CC[C@@]43C)[C@@H]1CC[C@@H]2O [I-bc, (E)-3-[3-(R)-Pyrrolidinyl]oxyimino-4-spirocyclopropane androst-5-en-17β-ol fumarate]
IC50 [1, 3]: 1800 nM

CC[C@H]1/C(=N/OCCN)CC[C@@]2(C)C1C(=O)C[C@@H]1[C@@H]2CC[C@]2(C)C(=O)CC[C@@H]12 (stereo partly drawn) [I-bd, (E)-3-(2-Aminoethoxyimino)-4β-ethylandrostan-6,17-dione hydrochloride]
IC50 [1]: 130 nM

CC[C@H]1/C(=N/O[C@@H]2CCNC2)CC[C@@]2(C)C1C(=O)C[C@@H]1[C@@H]2CC[C@]2(C)C(=O)CC[C@@H]12.Cl (stereo partly drawn) [I-be, (E)-3-[3-(R)-Pyrrolidinyl]oxyimino-4β-ethylandrostan-6,17-dione hydrochloride]
IC50 [1]: 49 nM | Dead/treated (anesthetized guinea-pig; [2]): 3/3 | ED80 (inotropic potency, dose increasing +dP/dTmax by 80%) (anesthetized guinea-pig; [2]): 1.40 µmol/kg | EDmax (dose inducing maximum positive inotropic effect) (anesthetized guinea-pig; [2]): 2.81 µmol/kg | Emax % increase in +dP/dTmax (maximum increase in contractile force) (anesthetized guinea-pig; [2]): 179% | Maximum dose infused (anesthetized guinea-pig; [2]): 12.6 µmol/kg | Lethal dose/ED80 (anesthetized guinea-pig): 7.8

C[C@]12CC[C@H]3[C@@H](CCC4C/C(=N\OCCN)[C@H](F)C[C@@]43C)[C@@H]1CC[C@@H]2O (stereo partly drawn) [I-bf, (E)-3-(2-Aminoethoxyimino)-2α-fluoroandrostan-17β-ol fumarate]
IC50 [1]: 2400 nM

C[C@]12CC[C@H]3[C@@H](CCC4C/C(=N\O[C@@H]5CCNC5)[C@H](F)C[C@@]43C)[C@@H]1CC[C@@H]2O (stereo partly drawn) [I-bg, (E)-3-[3-(R)-Pyrrolidinyl]oxyimino-2α-fluoroandrostan-17β-ol fumarate]
IC50 [1]: 840 nM

C[C@]12C[C@@H](F)/C(=N/O[C@@H]3CCNC3)CC1CC[C@@H]1[C@@H]2CC[C@]2(C)C(=O)CC[C@@H]12.Cl (stereo partly drawn) [I-bh, (E)-3-[3-(R)-Pyrrolidinyl]oxyimino-2α-fluoroandrostan-17-one hydrochloride]
IC50 [1]: 1100 nM | Dead/treated (anesthetized guinea-pig; [2]): 2/2 | ED80 (inotropic potency, dose increasing +dP/dTmax by 80%) (anesthetized guinea-pig; [2]): 7.00 µmol/kg | EDmax (dose inducing maximum positive inotropic effect) (anesthetized guinea-pig; [2]): 14.0 µmol/kg | Emax % increase in +dP/dTmax (maximum increase in contractile force) (anesthetized guinea-pig; [2]): 210% | Maximum dose infused (anesthetized guinea-pig; [2]): 100.8 µmol/kg | Lethal dose/ED80 (anesthetized guinea-pig): 7.5

C[C@]12CC[C@H]3[C@@H](CC(=O)C4C/C(=N\O[C@@H]5CCNC5)[C@H](F)C[C@@]43C)[C@@H]1CC[C@@H]2O (stereo partly drawn) [I-bi, (E)-3-[3-(R)-Pyrrolidinyl]oxyimino-2α-fluoro-17β-hydroxyandrostan-6-one fumarate]
IC50 [1]: 1300 nM

CO/N=C1\C[C@H]2[C@@H]3CC[C@H](O)[C@@]3(C)CC[C@@H]2[C@@]2(C)C[C@@H](F)/C(=N/O[C@@H]3CCNC3)CC12 (stereo partly drawn) [I-bk, (E)-3-[3-(R)-Pyrrolidinyl]oxyimino-2α-fluoro-6-(E)-methoxyiminoandrostan-17β-ol fumarate]
IC50 [1, 3]: 1900 nM

C[C@]12CC/C(=N\O[C@@H]3CCNC3)[C@@H](F)C1CC[C@@H]1[C@@H]2CC[C@]2(C)C(=O)CC[C@@H]12 (stereo partly drawn) [I-bl, (E)-3-[3-(R)-Pyrrolidinyl]oxyimino-4α-fluoroandrostan-17-one fumarate]
IC50 [1]: 550 nM

C[C@]12CC/C(=N\O[C@@H]3CCNC3)[C@@H](O)C1CC[C@@H]1[C@@H]2CC[C@]2(C)C(=O)CC[C@@H]12 (stereo partly drawn) [I-bn, (E)-3-[3-(R)-Pyrrolidinyl]oxyimino-4α-hydroxyandrostan-17-one fumarate]
IC50 [1]: 2700 nM

C[C@]12CC/C(=N\O[C@@H]3CCNC3)C3(CC3)C1=CC[C@@H]1[C@@H]2CC[C@]2(C)C(=O)CC[C@@H]12 [I-bo, (E)-3-[(3-(R)-Pyrrolidinyl)oxyimino]-4-spirocyclopropane-5-androsten-17-one fumarate]
IC50 [1, 3]: 690 nM

CC12CCC3C(CCC4C5(CCCC5)C(=NOC5CCNC5)CCC34C)C1CCC2O [I-bq, (E)-3-[(3-(R)-Pyrrolidinyl)oxyimino]-4-spirocyclopentaneandrostan-17β-ol fumarate]
IC50 [1, 3]: 3100 nM

CC12CCC3C(C(O)CC4C5(CCCC5)C(=NOC5CCNC5)CCC34C)C1CCC2O [I-bs, (E)-3-[(3-(R)-Pyrrolidinyl)oxyimino]-4-spirocyclopentaneandrostan-7α,17β-diol fumarate]
IC50 [1, 3]: 1100 nM

CC(C)C1=C2CC[C@H]3[C@@H]4CC[C@H](O)[C@@]4(C)CC[C@@H]3[C@@]2(C)CC/C1=N\O[C@@H]1CCNC1 [I-bv, fumarate]
IC50 [1, 3]: 3900 nM

CC[C@@H]1/C(=N/O[C@@H]2CCNC2)CC[C@@]2(C)C1CC[C@H]1[C@@H]3CC[C@H](O)[C@@]3(C)CC[C@@H]12 (stereo partly drawn) [I-bw, (E)-3-[(3-(R)-Pyrrolidinyl)oxyimino]-4α-ethylandrostan-17β-ol fumarate]
IC50 [1]: 1800 nM

CC[C@H]1/C(=N/O[C@@H]2CCNC2)CC[C@@]2(C)C1[C@@H](O)C[C@@H]1[C@@H]2CC[C@]2(C)C(=O)CC[C@@H]12 (stereo partly drawn) [I-bx, (E)-3-[3-(R)-Pyrrolidinyl]oxyimino-4β-ethyl-6α-hydroxyandrostan-17-one hydrochloride]
IC50 [1]: 65 nM

CC1(C)/C(=N/O[C@@H]2CCNC2)CC[C@]2(C)[C@H]3CC[C@]4(C)[C@@H](O)CC[C@H]4[C@@H]3CC[C@@]12O [I-by, (E)-3-[3-(R)-Pyrrolidinyl]oxyimino-4,4-dimethylandrostan-5α,17β-diol hydrochloride]
IC50 [1]: 2200 nM
